Columns and labels:
[1] = system: YAP-dependent transcription in NCI-H2052 Tet-On shYAP_2371 pLenti6 MCAT_Luc cells; assay: YAP reporter gene activity assay (MCAT-Luc), NCI-H2052; assay type: cell-based; details: Homo sapiens, 24 hrs
MKN-45/Ubc-luc cells = assay: Proliferation assay (resazurin/AlamarBlue), MKN-45; assay type: cell-based; details: Homo sapiens; MKN-45, 72 hours
How it was run: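 MKN-45 cells carrying constitutive Ubc-driven luciferase reporter, treated the day after seeding with eleven 2-fold dilutions (0.1% DMSO) for 72 h at 37 °C. Viability by resazurin, referenced to day-0 plate; GI50 from % growth (100 none, 0 stasis, −100 kill) and residual viability at top concentration.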

[2] = system: NCI-H2052 Tet-On shYAP_2371 pLenti6 MCAT_Luc cells; assay: Proliferation assay (resazurin/AlamarBlue), NCI-H2052; assay type: cell-based; details: Homo sapiens; NCI-H2052, 72 hours
[3] = target: TEAD1-GFP in HEK293A cells (Homo sapiens (Human), UniProt P28347); assay: TEAD1 protein abundance flow cytometry assay in HEK293A; assay type: cell-based; details: HEK293A TEAD1-GFP-CHYSEL-mCherry sensor cells, 24 h, GFP signal by flow cytometry
Experimental: Degradation of TEAD1 was measured in HEK293A cells (Invitrogen R70507) expressing TEAD1-GFP and mCherry from a stably integrated bicistronic TEAD1-GFP-CHYSEL-mCherry construct. Reduction of the GFP signal measured by flow cytometry served as readout for TEAD1 degradation after degrader treatment.
Stable HEK293A sensor cells were maintained in complete growth medium (DMEM high Glucose+10% FCS+1% L-Glutamine+1% NEAA+1% NaPyr.+4 μg/mL blasticidin) with passaging performed twice per week. On Day 0, stable HEK293A sensor cells were seeded at 5,000 cells/well in a 96-well microtiter plate in 100 μL complete medium. On Day 1, cells were treated in duplicate with 10-point 1:3 dilution series of compound using the HP D300 Digital Dispenser (Tecan). DMSO concentrations were normalized across the plate to 0.1%. On Day 2, after 24 h of incubation at 37° C., treatment media was discarded, cells rinsed with 100 μL/well PBS and then detached using 40 μL trypsin/well for 5 min. Trypsin was neutralized with 100 μL/well PBS+20% FCS).
Flow cytometry was performed on the samples using the CytoFlex S (Beckman Coulter). Cell identification was then performed using forward (FSC) vs. side scatter (SSC) plots. Single cell discrimination was performed using SSC-Width (SSC-W) vs. SSC-Height (SSCH) plots. Median GFP values for 2,500 single cells were used to determine TEAD1 levels. Median GFP values from HEK293A were used as a background signal and thus defining 0% TEAD1 signal. Median GFP values from DMSO treated HEK293A TEAD1-GFP CHYSEL-mCherry were used to define 100%
TEAD1 signal for subsequent DC50 curves (concentration at 50% TAED1 degradation). GFP and RFP were read in the channels called FITC and PE, respectively. Concentration response curves plotting relative reduction of the GFP signal (measured by flow cytometry) versus 10 compound concentrations (starting concentration 10 μM, 3 fold dilution steps) of the compounds allowed generation of DC50 values.

[4] = target: Avi-humanTEAD4^217-434 / Cy5 labeled humanYAP^60-100 (Homo sapiens (Human), UniProt Q15561); assay: In-vitro biochemical TR-FRET assay (TEAD4/YAP); assay type: binding; details: 1 h at room temperature
[5] = system: MKN-45/Ubc-luc cells (unspecific inhibition of luciferase expression or activity); assay: Reporter gene assay specificity control (Ubc-Luc), MKN-45; assay type: cell-based; details: Homo sapiens; MKN-45/Ubc-luc specificity control, 24 hrs
How it was run: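 MKN-45 cells stably carrying a ubiquitin C promoter–firefly luciferase construct, treated the day after seeding with eleven 2-fold compound dilutions (0.1% DMSO final) for 24 hrs at 37° C. Luminescence read 5 min after Steady Glo addition; cell-free background subtracted, as a control for nonspecific luciferase inhibition.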

[6] = system: YAP-dependent transcription in SF268-MCAT_Luc_dox-i-shYAPLevy (Clone 13) cells; assay: YAP reporter gene activity assay (MCAT-Luc), SF268; assay type: cell-based; details: Homo sapiens, SF-268; SF268 MCAT_Luc, 24 hrs
[7] = system: SF268-MCAT_Luc_dox-i-shYAPLevy (Clone 13) cells; assay: Proliferation assay (resazurin/AlamarBlue), SF268; assay type: cell-based; details: Homo sapiens, SF-268; SF268, 72 hours

Sequence of Avi-humanTEAD4^217-434 / Cy5 labeled humanYAP^60-100 (Q15561 217-434): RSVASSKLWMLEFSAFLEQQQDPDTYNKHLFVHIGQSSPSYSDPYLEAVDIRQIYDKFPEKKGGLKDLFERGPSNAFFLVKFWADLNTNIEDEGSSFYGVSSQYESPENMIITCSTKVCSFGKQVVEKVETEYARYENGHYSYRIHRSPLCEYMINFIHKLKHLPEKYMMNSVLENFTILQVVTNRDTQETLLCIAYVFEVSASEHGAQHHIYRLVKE
Sequence of TEAD1-GFP in HEK293A cells (P28347 whole entry): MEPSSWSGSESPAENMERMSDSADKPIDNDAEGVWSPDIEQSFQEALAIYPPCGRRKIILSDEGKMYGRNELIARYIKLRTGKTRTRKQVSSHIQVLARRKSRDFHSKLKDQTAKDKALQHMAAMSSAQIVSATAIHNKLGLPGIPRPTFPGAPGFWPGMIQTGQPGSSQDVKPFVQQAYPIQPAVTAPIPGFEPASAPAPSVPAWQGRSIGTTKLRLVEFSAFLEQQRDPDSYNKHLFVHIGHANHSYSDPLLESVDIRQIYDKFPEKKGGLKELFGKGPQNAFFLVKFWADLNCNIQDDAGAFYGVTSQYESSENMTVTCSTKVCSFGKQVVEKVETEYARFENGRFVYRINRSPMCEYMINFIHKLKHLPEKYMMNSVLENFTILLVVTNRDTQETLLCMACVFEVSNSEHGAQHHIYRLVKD

SMILES	IC50 [1]	GI50 (MKN-45/Ubc-luc cells)	GI50 [2]	DC50 [3]	IC50 [4]	IC50 [5]	IC50 [6]	GI50 [7]
COc1ccc(C(=O)N2CCC(CC3CCN(C(=O)[C@H]4CC[C@H](NC[C@]5(c6ccccc6)Oc6cc(F)c(Cl)c(-c7c(C(N)=O)ccc(OC)c7F)c6[C@@H]5C)CC4)CC3)CC2)cc1N1CCC(=O)NC1=O (atropisomer, axis not shown) [Example 1, 2-((2S,3S,4S)-5-chloro-2-((((1r,4S)-4-(4-((1-(3-(2,4-dioxotetrahydropyrimidin-1(2H)-yl)-4-methoxybenzoyl)piperidin-4-yl)methyl)piperidine-1-carbonyl)cyclohexyl)amino)methyl)-6-fluoro-3-methyl-2-phenyl-2,3-dihydrobenzofuran-4-yl)-3-fluoro-4-methoxybenzamide]	0.0036 µM	11 µM	0.015 µM	0.0006 µM	0.0019 µM	> 20 µM	0.0003 µM	0.014 µM
COc1ccc(C(N)=O)c(-c2c(Cl)c(F)cc3c2[C@H](C)[C@@](CN[C@H]2CC[C@H](C(=O)NCCOCCOCCOCCNC(=O)COc4cc(-c5scnc5C)ccc4CNC(=O)[C@@H]4C[C@@H](O)CN4C(=O)[C@@H](NC(=O)C4(F)CC4)C(C)(C)C)CC2)(c2ccccc2)O3)c1F (atropisomer, axis not shown) [Example 40, (2S,4R)-N-(2-((1-((1S,4r)-4-((((2S,3S,4S)-4-(6-carbamoyl-2-fluoro-3-methoxyphenyl)-5-chloro-6-fluoro-3-methyl-2-phenyl-2,3-dihydrobenzofuran-2-yl)methyl)amino)cyclohexyl)-1,15-dioxo-5,8,11-trioxa-2,14-diazahexadecan-16-yl)oxy)-4-(4-methylthiazol-5-yl)benzyl)-1-((S)-2-(1-fluorocyclopropane-1-carboxamido)-3,3-dimethylbutanoyl)-4-hydroxypyrrolidine-2-carboxamide]	0.16 µM	> 20 µM	0.41 µM	0.02 µM	0.0047 µM	> 20 µM	0.047 µM	1.86 µM
COc1ccc(C(=O)N2CCN(CC3CCN(C(=O)[C@H]4CC[C@H](NC[C@]5(c6ccccc6)Oc6cc(F)c(Cl)c(-c7c(C(N)=O)ccc(OC)c7F)c6[C@@H]5C)CC4)CC3)CC2)cc1N1CCC(=O)NC1=O (atropisomer, axis not shown) [Example 6, 2-((2S,3S,4S)-5-chloro-2-((((1r,4S)-4-(4-((4-(3-(2,4-dioxotetrahydropyrimidin-1(2H)-yl)-4-methoxybenzoyl)piperazin-1-yl)methyl)piperidine-1-carbonyl)cyclohexyl)amino)methyl)-6-fluoro-3-methyl-2-phenyl-2,3-dihydrobenzofuran-4-yl)-3-fluoro-4-methoxybenzamide]	0.016 µM	> 20 µM	0.061 µM	0.002 µM	0.0015 µM	> 20 µM	0.0005 µM	0.039 µM
COc1ccc(C(N)=O)c(-c2c(Cl)c(F)cc3c2[C@H](C)[C@@](CN[C@H]2CC[C@H](C(=O)N[C@H]4CC[C@H](NC(=O)COc5cc(-c6scnc6C)ccc5CNC(=O)[C@@H]5C[C@@H](O)CN5C(=O)[C@@H](NC(=O)C5(F)CC5)C(C)(C)C)CC4)CC2)(c2ccccc2)O3)c1F (atropisomer, axis not shown) [Example 39, (2S,4R)-N-(2-(2-(((1S,4S)-4-((1S,4R)-4-((((2S,3S,4S)-4-(6-carbamoyl-2-fluoro-3-methoxyphenyl)-5-chloro-6-fluoro-3-methyl-2-phenyl-2,3-dihydrobenzofuran-2-yl)methyl)amino)cyclohexane-1-carboxamido)cyclohexyl)amino)-2-oxoethoxy)-4-(4-methylthiazol-5-yl)benzyl)-1-((S)-2-(1-fluorocyclopropane-1-carboxamido)-3,3-dimethylbutanoyl)-4-hydroxypyrrolidine-2-carboxamide]	0.056 µM	> 2 µM	0.17 µM	0.009 µM	0.003 µM	> 2 µM	0.0018 µM	0.063 µM

Second part, led by results:

IC50 [1]	GI50 (MKN-45/Ubc-luc cells)	GI50 [2]	DC50 [3]	IC50 [4]	IC50 [5]	IC50 [6]	SMILES	GI50 [7]
0.0019 µM	> 20 µM	0.0066 µM	0.0006 µM	0.0018 µM	> 20 µM	0.00028 µM	COc1ccc(C(N)=O)c(-c2c(Cl)c(F)cc3c2[C@H](C)[C@@](CN[C@H]2CC[C@H](C(=O)NCCCCCc4cccc5c4CN(C4CCC(=O)NC4=O)C5=O)CC2)(c2ccccc2)O3)c1F (stereo partly drawn) [Example 31, 2-((2S,3S,4S)-5-chloro-2-((((1r,4S)-4-((5-(2-(2,6-dioxopiperidin-3-yl)-1-oxoisoindolin-4-yl)pentyl)carbamoyl)cyclohexyl)amino)methyl)-6-fluoro-3-methyl-2-phenyl-2,3-dihydrobenzofuran-4-yl)-3-fluoro-4-methoxybenzamide]	0.019 µM
0.0014 µM	> 2 µM	0.0043 µM	0.0003 µM	0.0016 µM	> 2 µM	0.0003 µM	COc1ccc(C(N)=O)c(-c2c(Cl)c(F)cc3c2[C@H](C)[C@@](CN[C@H]2CC[C@H](C(=O)N4CCC(CC5CCN(C(=O)COc6ccc(C)c(N7CCC(=O)NC7=O)c6)CC5)CC4)CC2)(c2ccccc2)O3)c1F (atropisomer, axis not shown) [Example 21, 2-((2S,3S,4S)-5-chloro-2-((((1r,4S)-4-(4-((1-(2-(3-(2,4-dioxotetrahydropyrimidin-1(2H)-yl)-4-methylphenoxy)acetyl)piperidin-4-yl)methyl)piperidine-1-carbonyl)cyclohexyl)amino)methyl)-6-fluoro-3-methyl-2-phenyl-2,3-dihydrobenzofuran-4-yl)-3-fluoro-4-methoxybenzamide]	0.0094 µM
0.013 µM	> 2 µM	0.035 µM	0.003 µM	< 0.001 µM	> 2 µM	0.0014 µM	COc1ccc(C(N)=O)c(-c2c(Cl)c(F)cc3c2[C@H](C)[C@@](CN[C@H]2CC[C@H](C(=O)NCCCCCCCNC(=O)COc4ccc(C)c(N5CCC(=O)NC5=O)c4)CC2)(c2ccccc2)O3)c1F (atropisomer, axis not shown) [Example 23, 2-((2S,3S,4S)-5-chloro-2-((((1r,4S)-4-((7-(2-(3-(2,4-dioxotetrahydropyrimidin-1(2H)-yl)-4-methylphenoxy)acetamido)heptyl)carbamoyl)cyclohexyl)amino)methyl)-6-fluoro-3-methyl-2-phenyl-2,3-dihydrobenzofuran-4-yl)-3-fluoro-4-methoxybenzamide]	0.074 µM
0.013 µM	> 20 µM	0.048 µM	0.002 µM	0.0014 µM	> 20 µM	0.0009 µM	COc1ccc(C(=O)N2CCC(OC3CCN(C(=O)[C@H]4CC[C@H](NC[C@]5(c6ccccc6)Oc6cc(F)c(Cl)c(-c7c(C(N)=O)ccc(OC)c7F)c6[C@@H]5C)CC4)CC3)CC2)cc1N1CCC(=O)NC1=O (atropisomer, axis not shown) [Example 2, 2-((2S,3S,4S)-5-chloro-2-((((1r,4S)-4-(4-((1-(3-(2,4-dioxotetrahydropyrimidin-1(2H)-yl)-4-methoxybenzoyl)piperidin-4-yl)oxy)piperidine-1-carbonyl)cyclohexyl)amino)methyl)-6-fluoro-3-methyl-2-phenyl-2,3-dihydrobenzofuran-4-yl)-3-fluoro-4-methoxybenzamide]	0.041 µM

— US20240382600A1, “BIFUNCTIONAL DEGRADERS COMPRISING A TEAD BINDER” (Novartis AG, priority 2021, published 2024)
